This note sets out measurements from patent US12497408B2, “Tetracyclic compounds and methods for the treatment of Zika virus infection” (priority 2021, dated 2025).

Structures are written as SMILES. Where two headings read alike, the source gives them in different places.

The test deals with ZIKV. The test is described as follows: ZIKV reporter virus-based antiviral screening on Huh7 cells. The settings on record: Huh7 cells infected with recombinant luciferase reporter ZIKV (MOI about 0.1), luciferase signal. The format is cell-based, Zika virus. In outline: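 Huh7 cells in 2% FBS assay medium infected at MOI about 0.1 with Renilla or Nano luciferase ZIKV premixed with nine-point compound dilutions, 48 hrs at 37° C. Luciferase signal normalized to DMSO controls as 100%; viability optionally by CellTiter-Glo with Rlu virus.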
For orientation: In a reporter assay the amount or activity of a reporter protein is the signal.

By EC50 is commonly meant the concentration at which the effect is half-maximal. Take `COC(=O)N[C@H](C(=O)N1CC2(CC2)C[C@H]1c1nc(Cl)c(-c2cc3c4c(c2)OCc2cc(-c5[nH]c([C@@H]6CC7(CC7)CN6C(=O)[C@@H](NC(=O)OC)C(C)(C)C)nc5C(C)C)cc(c2-4)OC3)[nH]1)C(C)(C)C` [Compound 82, methyl ((S)-1-((S)-6-(5-(7-(4-chloro-2-((S)-5-((S)-2-((methoxycarbonyl)amino)-3,3-dimethylbutanoyl)-5-azaspiro[2.4]heptan-6-yl)-1H-imidazol-5-yl)-5,10-dihydrochromeno[5,4,3-cde]chromen-2-yl)-4-isopropyl-1H-imidazol-2-yl)-5-azaspiro[2.4]heptan-5-yl)-3,3-dimethyl-1-oxobutan-2-yl)carbamate]: the EC50 (Zika virus, Huh-7, 48 h) turned out to be 2.6 nM.
On the same count and under the same terms, for `COC(=O)N[C@H](C(=O)N1C[C@H](C)C[C@H]1c1nc(Cl)c(-c2cc3c4c(c2)OCc2cc(-c5[nH]c([C@@H]6C[C@@H](C)CN6C(=O)[C@@H](NC(=O)OC)C(C)C)nc5C(C)C)cc(c2-4)OC3)[nH]1)C(C)C` [Compound 84, methyl ((S)-1-((2S,4R)-2-(5-(7-(4-chloro-2-((2S,4R)-1-((methoxycarbonyl)-L-valyl)-4-methylpyrrolidin-2-yl)-1H-imidazol-5-yl)-5,10-dihydrochromeno[5,4,3-cde]chromen-2-yl)-4-isopropyl-1H-imidazol-2-yl)-4-methylpyrrolidin-1-yl)-3-methyl-1-oxobutan-2-yl)carbamate] the value was 3.3 nM; for `CC[C@H](C)[C@H](NC(=O)OC)C(=O)N1C[C@@H](OC)C[C@H]1c1nc(Cl)c(-c2cc3c4c(c2)OCc2cc(-c5[nH]c([C@@H]6C[C@H](OC)CN6C(=O)[C@@H](NC(=O)OC)[C@@H](C)CC)nc5Cl)cc(c2-4)OC3)[nH]1` [Compound 5, dimethyl ((2S,2′S,3S,3′S)-((3S,3′S,5S,5′S)-((5,10-dihydrochromeno[5,4,3-cde]chromene-2,7-diyl)bis(4-chloro-1H-imidazole-5,2-diyl))bis(3-methoxypyrrolidine-5,1-diyl))bis(3-methyl-1-oxopentane-1,2-diyl))dicarbamate], 12.4 nM.
`COC(=O)N[C@H](C(=O)N1C[C@@H](C)C[C@H]1c1nc(Cl)c(-c2cc3c4c(c2)OCc2cc(-c5[nH]c([C@@H]6C[C@H](C)CN6C(=O)[C@@H](NC(=O)OC)C(C)C)nc5Cl)cc(c2-4)OC3)[nH]1)C(C)C` [Compound 48, dimethyl ((2S,2′S)-((3S,3′S,5S,5′S)-((5,10-dihydrochromeno[5,4,3-cde]chromene-2,7-diyl)bis(4-chloro-1H-imidazole-5,2-diyl))bis(3-methylpyrrolidine-5,1-diyl))bis(3-methyl-1-oxobutane-1,2-diyl))dicarbamate]: for the setting “Zika virus, Huh-7, 48 h”, the half-maximal effective concentration (EC50) came to 4.6 nM.
For `CC[C@H](C)[C@H](NC(=O)OC)C(=O)N1[C@H](c2nc(Cl)c(-c3cc4c5c(c3)OCc3cc(-c6[nH]c([C@@H]7C[C@@H]8CCCC[C@@H]8N7C(=O)[C@@H](NC(=O)OC)[C@@H](C)CC)nc6Cl)cc(c3-5)OC4)[nH]2)C[C@@H]2CCCC[C@@H]21` [Compound 39, dimethyl ((2S,2′S,3S,3′S)-((2S,2′S,3aS,3a′S,7aS,7a′S)-((5,10-dihydrochromeno[5,4,3-cde]chromene-2,7-diyl)bis(4-chloro-1H-imidazole-5,2-diyl))bis(octahydro-1H-indole-2,1-diyl))bis(3-methyl-1-oxopentane-1,2-diyl))dicarbamate], the EC50 (Zika virus, Huh-7, 48 h) is 10.9 nM.
For `COC(=O)N[C@H](C(=O)N1CC(F)(F)C[C@H]1c1nc(Cl)c(-c2cc3c4c(c2)OCc2cc(-c5[nH]c([C@@H]6CC(F)(F)CN6C(=O)[C@@H](NC(=O)OC)C(C)(C)C(F)(F)F)nc5Cl)cc(c2-4)OC3)[nH]1)C(C)(C)C(F)(F)F` [Compound 58, dimethyl ((2S,2′S)-((5S,5′S)-((5,10-dihydrochromeno[5,4,3-cde]chromene-2,7-diyl)bis(4-chloro-1H-imidazole-5,2-diyl))bis(3,3-difluoropyrrolidine-5,1-diyl))bis(4,4,4-trifluoro-3,3-dimethyl-1-oxobutane-1,2-diyl))dicarbamate], the EC50 (Zika virus, Huh-7, 48 h) stood at 11 nM.
As for `COC(=O)N[C@H](C(=O)N1[C@H](c2ncc(-c3cc4c5c(c3)OCc3cc(-c6[nH]c([C@@H]7C[C@@H]8CCC[C@@H]8N7C(=O)[C@@H](NC(=O)OC)C(C)C)nc6Cl)cc(c3-5)OC4)[nH]2)C[C@@H]2CCC[C@@H]21)C(C)C` [Compound 30, methyl ((S)-1-((2S,3aS,6aS)-2-(4-chloro-5-(7-(2-((2S,3aS,6aS)-1-((methoxycarbonyl)-L-valyl)octahydrocyclopenta[b]pyrrol-2-yl)-1H-imidazol-5-yl)-5,10-dihydrochromeno[5,4,3-cde]chromen-2-yl)-1H-imidazol-2-yl)hexahydrocyclopenta[b]pyrrol-1(2H)-yl)-3-methyl-1-oxobutan-2-yl)carbamate], the EC50 (Zika virus, Huh-7, 48 h) is 8 nM.
Turning to `COC(=O)N[C@H](C(=O)N1[C@H](c2nc(Cl)c(-c3cc4c5c(c3)OCc3cc(-c6[nH]c([C@@H]7C[C@@H]8C[C@@H]8N7C(=O)[C@@H](NC(=O)OC)C(C)C)nc6Cl)cc(c3-5)OC4)[nH]2)C[C@@H]2C[C@@H]21)C(C)C` [Compound 10, dimethyl ((2S,2′S)-((1S,1′S,3S,3′S,5S,5′S)-((5,10-dihydrochromeno[5,4,3-cde]chromene-2,7-diyl)bis(4-chloro-1H-imidazole-5,2-diyl))bis(2-azabicyclo[3.1.0]hexane-3,2-diyl))bis(3-methyl-1-oxobutane-1,2-diyl))dicarbamate], the EC50 (Zika virus, Huh-7, 48 h) is 7 nM.
Regarding `COC(=O)N[C@H](C(=O)N1C[C@@H](F)C[C@H]1c1nc(Cl)c(-c2cc3c4c(c2)OCc2cc(-c5[nH]c([C@@H]6C[C@H](F)CN6C(=O)[C@@H](NC(=O)OC)C(C)(C)C(F)(F)F)nc5Cl)cc(c2-4)OC3)[nH]1)C(C)(C)C(F)(F)F` [Compound 52, dimethyl ((2S,2′S)-((3S,3′S,5S,5′S)-((5,10-dihydrochromeno[5,4,3-cde]chromene-2,7-diyl)bis(4-chloro-1H-imidazole-5,2-diyl))bis(3-fluoropyrrolidine-5,1-diyl))bis(4,4,4-trifluoro-3,3-dimethyl-1-oxobutane-l,2-diyl))dicarbamate], the 50% effective concentration (EC50) (48 hrs, read-out: EC50) was 103 nM.
Turning to `C=C(C)c1nc([C@@H]2C[C@H](C)CN2C(=O)[C@@H](NC(=O)OC)C(C)C)[nH]c1-c1cc2c3c(c1)OCc1cc(-c4[nH]c([C@@H]5C[C@H](C)CN5C(=O)[C@@H](NC(=O)OC)C(C)C)nc4C(=C)C)cc(c1-3)OC2` [Compound 71, dimethyl ((2S,2′S)-((3S,3′S,5S,5′S)-((5,10-dihydrochromeno[5,4,3-cde]chromene-2,7-diyl)bis(4-(prop-1-en-2-yl)-1H-imidazole-5,2-diyl))bis(3-methylpyrrolidine-5,1-diyl))bis(3-methyl-1-oxobutane-1,2-diyl))dicarbamate], for the setting “Zika virus, Huh-7, 48 h”, the EC50 was 36.4 nM.
For `COC(=O)N[C@H](C(=O)N1C[C@H](C)C[C@H]1c1nc(Cl)c(-c2cc3c4c(c2)OCc2cc(-c5[nH]c([C@@H]6C[C@@H](C)CN6C(=O)[C@@H](NC(=O)OC)C(C)C)nc5Cl)cc(c2-4)OC3)[nH]1)C(C)C` [Compound 1, dimethyl ((2S,2′S)-((3R,3′R,5S,5′S)-((5,10-dihydrochromeno[5,4,3-cde]chromene-2,7-diyl)bis(4-chloro-1H-imidazole-5,2-diyl))bis(3-methylpyrrolidine-5,1-diyl))bis(3-methyl-1-oxobutane-1,2-diyl))dicarbamate], where the note is “Zika virus, Huh-7, 48 h”, the EC50 is 4.2 nM.
